Earlier results as cited in patent publication US12421495B2, “Compositions and methods for selective phagocytosis of human cancer cells” (THE TRUSTEES OF THE UNIVERSITY OF PENNSYLVANIA, priority 2015, dated 2025).

Tested on: tdTomato A549 tumors
Conditions: same tumor model; Nair et al. 2016

For CC(=O)O[C@H]1C(=O)[C@@]2(C)[C@H]([C@H](OC(=O)c3ccccc3)[C@]3(O)C[C@H](OC(=O)[C@H](O)[C@@H](NC(=O)c4ccccc4)c4ccccc4)C(C)=C1C3(C)C)[C@]1(OC(C)=O)CO[C@@H]1C[C@@H]2O [Paclitaxel], the “tumor shrinkage by day 10” value is given as −25%.
